Laboratory results from patent publication US9700565B2, “Method of treating mixed lineage leukemia gene-rearranged acute lymphoblastic leukemias” (Dana-Farber Cancer Institute, Inc., priority 2003, dated 2017).

Legend:
RS4; 11 = experiment: In vivo xenograft model of MLL rearranged ALL with bioluminescent imaging, RS4; 11 cells; settings: SCID-beige mice injected with RS4; 11 cells (does not over-express FLT3); 150 mg/kg once daily via gavage, 5 days per week
Experimental: (§1) To determine if PKC412 is effective against an in vivo model of MLL rearranged ALL, a xenograft model system in which leukemia burden can be quantitated with in vivo bioluminescent imaging is established. SEMK2-M1 and RS4; 11 (ATCC Number: CRL-1873) cell lines are engineered to express firefly luciferase fused to neomycin phosphotransferase by retroviral transduction. One million leukemia cells are then injected into the tail vein of SCID-beige mice. Within 1 week, the bioluminescent signal is detectable in a location consistent with the femur. Pathologic analysis of similarly xenografted mice confirm that the leukemia cells are initially found in the mouse bone marrow present in the femoral head. The leukemia subsequently progresses to replace the normal bone marrow and involve other organs, thus mimicking the progression of human leukemia. Once the leukemia had engrafted, as can be determined by the presence of a bioluminescent signal, a cohort of mice is treated with either 150 mg/kg PKC412 or vehicle once daily via gavage for 5 days per week. Serial imaging of the two cohorts is then performed to quantitate disease burden. […] Thus, oral administration of PKC412 is effective in vivo against human lymphoblastic leukemia with an MLL rearranged ALL arrangement and activated FLT3.

SEMK2-M1 = experiment: In vivo xenograft model of MLL rearranged ALL with bioluminescent imaging, SEMK2-M1 cells; parameters: species or system SCID-beige mice; settings: 150 mg/kg once daily via gavage, 5 days per week
Experimental: as §1

SMILES: CO[C@@H]1[C@H](N(C)C(=O)c2ccccc2)C[C@H]2O[C@]1(C)n1c3ccccc3c3c4c(c5c6ccccc6n2c5c31)C(=O)NC4 [PKC412, N-benzoyl-staurosporine]
- anti-tumor effect on leukemia (bioluminescent imaging) (RS4; 11): no effect
- quantification of total leukemic burden (bioluminescent imaging) (SEMK2-M1; SCID-beige mice engrafted with SEMK2-M1 cells (over-expresses FLT3), after 2 weeks of therapy): anti-tumor efficacy
- tumor burden by pathological analysis at completion of the study (SEMK2-M1; SEMK2-M1 injected mice, compared to control mice): vast differences in tumor burden
